This assay has as its target T1, isomerase (Mus musculus, UniProt Q91ZQ5).
T1 construct: The recovery of 11-cis-retinal after bleaching can be used to estimate the activity of isomerase in vivo; from tissue; host or cells: eyes of living CD-1 and Balb/c male mice
T1 sequence (Q91ZQ5 1-533): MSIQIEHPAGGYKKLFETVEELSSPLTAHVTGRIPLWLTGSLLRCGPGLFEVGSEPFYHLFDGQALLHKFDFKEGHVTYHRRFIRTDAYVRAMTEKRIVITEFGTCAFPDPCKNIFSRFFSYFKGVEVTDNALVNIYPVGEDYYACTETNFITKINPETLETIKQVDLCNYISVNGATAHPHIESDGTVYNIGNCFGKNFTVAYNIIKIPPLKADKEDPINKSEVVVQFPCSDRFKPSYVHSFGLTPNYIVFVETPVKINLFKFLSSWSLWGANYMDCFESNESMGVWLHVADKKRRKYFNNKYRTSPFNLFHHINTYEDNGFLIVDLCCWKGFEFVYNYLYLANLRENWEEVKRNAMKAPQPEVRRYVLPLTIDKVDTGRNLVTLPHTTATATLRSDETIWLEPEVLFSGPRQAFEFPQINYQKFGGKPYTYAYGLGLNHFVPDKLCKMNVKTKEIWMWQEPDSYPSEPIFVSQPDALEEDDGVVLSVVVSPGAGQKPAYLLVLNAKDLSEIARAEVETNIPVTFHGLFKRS
As to the kind of experiment: In vivo murine isomerase assay (recovery of 11-cis-retinal after photobleaching). The arrangement: species or system mice. As to conditions: for inhibition in vivo at 1 mg/kg / ED50 / inhibition in vivo at 5 mg/kg: mouse; for inhibition in vivo at 1 mg/kg / inhibition in vivo at 5 mg/kg: read-out: % Inibition; for ED50: po, read-out: ED50 (dose of compound that gives 50% inhibition of 11-cis retinal (oxime) recovery), estimated, male Balb/c mice, HCl salts dosed orally in mg/kg; for ED50 / inhibition of isomerase activity in vivo (figure legend): photobleached 4 hours after dosing; for inhibition of isomerase activity in vivo (figure legend): oral dose response, Balb/c mice. As to the method: The capability of alkynyl phenyl-linked amine derivatives to inhibit isomerase is determined by an in vivo murine isomerase assay. Brief exposure of the eye to intense light (“photobleaching” of the visual pigment or simply “bleaching”) is known to photo-isomerize almost all 11-cis-retinal in the retina. The recovery of 11-cis-retinal after bleaching can be used to estimate the activity of isomerase in vivo. Delayed recovery, as represented by lower 11-cis-retinal oxime levels, indicates inhibition of isomerization reaction. Procedures were performed essentially as described by Golczak et al., Proc. Natl. Acad. Sci. […] See also Deigner et al., Science, 244: 968-71 (1989); […] Parish, et al., Proc. Natl. Acad. Sci. USA, 14609-13 (1998); […] Six-week old dark-adapted CD-1 (albino) male mice were orally gavaged with compound (0.03-3 mg/kg) dissolved in 100 μl corn oil containing 10% ethanol (five animals per group). […] After 2-24 hours in the dark, the mice were exposed to photobleaching of 5,000 lux of white light for 10 minutes. The mice were allowed to recover 2 hours in the dark. The animals were then sacrificed by carbon dioxide inhalation. Retinoids were extracted from the eye and the regeneration of 11-cis-retinal was assessed at various time intervals. All steps were performed in darkness with minimal redlight illumination (low light darkroom lights and […] flashlights for spot illumination as needed) (see, e.g., Maeda et al., J. Neurochem 85:944-956, 2003; Van Hooser et al., J Biol Chem 277:19173-82, 2002). After the mice were sacrificed, the eyes were immediately removed and placed in liquid nitrogen for storage. The eyes were placed in 500 μL of bis-tris propane buffer (10 mM, pH 7.3) and 20 μL of 0.8M hydroxile amine (pH-7.3). The eyes were cut up into small pieces with small iris scissors and then thoroughly homogenized at 30000 rpm with a mechanical homogenizer (Polytron PT 1300 D) in the tube until no visible tissue remained. 500 μL of methanol and 500 μL of heptane were added to each tube. The tubes were attached to a vortexer so that the contents were mixed thoroughly for 15 minutes in room temperature. […] The samples were analyzed on an Agilent 1100 HPLC system with normal phase column: SILICA (Beckman Coutlier, dp 5 μm, […]). The running method has a flow rate of 1.5 ml/min; solvent components are 15% solvent 1 (1% isopropanol in ethyl acetate), and 85% solvent 2 (100% hexanes). Loading volume for each sample is 100 μl; detection wavelength is 360 nm. The area under the curve for 11-cis retinal oxime was calculated by Agilent Chemstation software and was recorded manually. Data processing was performed using Prizm software. Positive control mice (no compound administered) were sacrificed fully dark-adapted and the eye retinoids analyzed. Light (bleached) control mice (no compound administered) were sacrificed and retinoids isolated and analyzed immediately after light treatment. […] Animals that received Compound 19 HCl were orally dosed with 0.01 and 1 mg/kg of compound in sterile water as solution, and photobleached 4 hours after dosing. Recovery and retinoid analysis were performed as described above. Dark control mice were vehicle-only treated, sacrificed fully dark adapted without light treatment, and analyzed. […] A time course study was performed to determine the isomerase inhibitory activity of Compounds 2, 18 and 19. Male Balb/c mice (4/group) received 3 mg Compound 2-HCl, Compound 18-HCl or Compound 19-HCl (in water) per kg bodyweight orally, by gavage. The animals were then “photo-bleached” (5000 Lux white light for 10 minutes) at 2, 4, 8, 16 and 24 hours after dosing, and returned to darkness to allow recovery of the 11-cis-retinal content of the eyes. Mice were sacrificed 2 hours after bleaching, eyes were enucleated, and retinoid content was analyzed by HPLC. A single dose study of the compound of Example 36 (Compound 36) was performed, at 1 mg/kg and 5 mg/kg oral dosing, 2, 4, 6, and 24 hours post bleaching. […]

Where two headings read alike, the source gives them in different places.

As to `CC(=O)NCCCc1cccc(C#CC2(O)CCCCC2)c1` [Example 60, N-(3-(3-((1-Hydroxycyclohexyl)Ethynyl)Phenyl)Propyl)Acetamide], the inhibition in vivo at 1 mg/kg is 10% (4 h) and 9% (24 h).
For `COc1ccccc1C#Cc1cccc(C(O)CCN)c1` (centres unmarked) [Example 54, 3-Amino-1-(3-((2-Methoxyphenyl)Ethynyl)Phenyl)Propan-1-ol], the inhibition in vivo at 1 mg/kg runs as follows: (4 h) 67%; (24 h) 58%.
Regarding `NCCC(O)c1cccc(C#CC2(O)CCCCC2)c1` (centres unmarked) [Example 99, 1-((3-(3-Amino-1-hydroxypropyl)phenyl)ethynyl)cyclohexanol], the inhibition in vivo at 1 mg/kg came to 31% (4 h) and 0% (24 h).
Broadly, the ED50 is the dose that gives a 50% effect, or the effect in half of the subjects. Consider `CCCC(O)(C#Cc1cccc([C@H](O)CCN)c1)CCC` [Compound 100, (R)-4-((3-(3-Amino-1-Hydroxypropyl)Phenyl)Ethynyl)Heptan-4-ol], for which the 50% effective dose (ED50) is 0.2 mg/kg and the “inhibition of isomerase activity in vivo (figure legend)” value (“inhibition of isomerase activity” below) is “concentration-dependent inhibition”.
`NCCCc1cccc(C#C[C@@H](O)c2ccccc2)c1` [Example 26, (S)-3-(3-(3-Aminopropyl)phenyl)-1-phenylprop-2-yn-1-ol]: the inhibition in vivo at 1 mg/kg is, setting by setting: (4 h) 18%; (24 h) 0%.
In the case of `NCCC(O)c1cccc(C#CC2CCCC2)c1` (centres unmarked) [Example 47, 3-Amino-1-(3-(cyclopentylethynyl)phenyl)propan-1-ol], the inhibition in vivo at 1 mg/kg came out at 100% (4 h) and 2% (24 h).
Regarding `NCCOc1cccc(C#CC2(O)CCCC2)c1` [Example 31, 1-((3-(2-Aminoethoxy)phenyl)ethynyl)cyclopentanol], the inhibition in vivo at 1 mg/kg runs as follows: (4 h) 18%; (24 h) 0%.
The like results for `CC(C)(C)C(C)(O)C#Cc1cccc(CCCN)c1` (centres unmarked) [Example 25, 1-(3-(3-Aminopropyl)phenyl)-3,4,4-trimethylpent-1-yn-3-ol] were, in that order, 1% and 0%.
As for `CC(C)C(O)(C#Cc1cccc(OCCN)c1)C(C)C` [Example 28, 1-(3-(2-Aminoethoxy)phenyl)-3-isopropyl-4-methylpent-1-yn-3-ol], the inhibition in vivo at 1 mg/kg was determined as 27% (4 h) and 0% (24 h).
Turning to `NCCCc1cccc(C#Cc2ccccc2)c1` [Example 37, 3-(3-(Phenylethynyl)phenyl)propan-1-amine], under “4 h”, the inhibition in vivo at 1 mg/kg stood at 23% and the inhibition in vivo at 5 mg/kg turned out to be 73%. For the same molecule, where the note is “24 h”, the inhibition in vivo at 1 mg/kg was determined as 9% and the inhibition in vivo at 5 mg/kg amounted to 0%.
For the molecule `NCCOc1cccc(C#Cc2cccnc2)c1` [Example 62, 2-(3-(Pyridin-3-ylethynyl)phenoxy)ethanamine], the inhibition in vivo at 1 mg/kg came to 0% (4 h) and 0% (24 h).
In the case of `CCCC(O)C#Cc1cccc(CCCN)c1` (centres unmarked) [Example 8, 1-(3-(3-Aminopropyl)phenyl)hex-1-yn-3-ol], the inhibition in vivo at 5 mg/kg is, setting by setting: (4 h) 0%; (24 h) 0%.
For `NCCC(O)c1cccc(C#CCCc2ccccc2)c1` (centres unmarked) [Example 69, 3-Amino-1-(3-(4-phenylbut-1-ynyl)phenyl)propan-1-ol], the inhibition in vivo at 1 mg/kg by setting is: (4 h) 81%; (24 h) 10%.
The matching figures for `NCCOc1cccc(C#CC2(O)CCCCC2)c1` [Example 57, 1-((3-(2-Aminoethoxy)phenyl)ethynyl)cyclohexanol]: 8% and 21%.
Take `CCCC(O)(C#Cc1cccc([C@@H](O)CCN)c1)CCC` [Compound 101, (S)-4-((3-(3-Amino-1-Hydroxypropyl)Phenyl)Ethynyl)Heptan-4-ol]: the median effective dose (ED50) is 0.38 mg/kg and the “inhibition of isomerase activity” value is on record as “concentration-dependent inhibition”.
`CCC(O)(C#Cc1cccc(OCCN)c1)CC` [Example 27, 1-(3-(2-Aminoethoxy)phenyl)-3-ethylpent-1-yn-3-ol]: the inhibition in vivo at 1 mg/kg is, setting by setting: (4 h) 7%; (24 h) 6%. For the same molecule, the inhibition in vivo at 5 mg/kg turned out to be 65% (4 h) and 0% (24 h).
Turning to `NCCOc1cccc(C#CCCCCO)c1` [Example 74, 6-(3-(2-Aminoethoxy)phenyl)hex-5-yn-1-ol], the inhibition in vivo at 1 mg/kg is, setting by setting: (4 h) 8%; (24 h) 0%.
Take `CC(C)(O)C#Cc1cccc(CCCN)c1` [Example 7, 4-(3-(3-Aminopropyl)phenyl)-2-methylbut-3-yn-2-ol]: the inhibition in vivo at 5 mg/kg was determined as 49% (4 h) and 0% (24 h).
Take `CCCC(O)(C#Cc1cccc(C(O)CCN)c1)CCC` (centres unmarked) [Example 19, 4-((3-(3-Amino-1-hydroxypropyl)phenyl)ethynyl)heptan-4-ol]: the ED50 is 0.33 mg/kg and the “inhibition of isomerase activity” value was “concentration-dependent inhibition”.
`NCCOc1cccc(C#CC2CCCCC2)c1` [Example 80, 2-(3-(Cyclohexylethynyl)phenoxy)ethanamine]: the inhibition in vivo at 1 mg/kg (4 h) came out at 22% and the inhibition in vivo at 1 mg/kg (24 h) is 0%.
Consider `CCCC(O)(C#Cc1cccc(OCCN)c1)CCC` [Example 18, 4-((3-(2-Aminoethoxy)phenyl)ethynyl)heptan-4-ol], for which the ED50 is 1.73 mg/kg and the “inhibition of isomerase activity” value is reported as “concentration-dependent inhibition”.
In the case of `NCCC(O)c1cccc(C#CCCO)c1` (centres unmarked) [Example 51, 4-(3-(3-Amino-1-hydroxypropyl)phenyl)but-3-yn-1-ol], the inhibition in vivo at 1 mg/kg stood at 0% (4 h) and 0% (24 h).
Consider `CCC(O)(C#Cc1cccc(CCCN)c1)CC` [Example 1, 1-(3-(3-Aminopropyl)phenyl)-3-ethylpent-1-yn-3-ol], for which the inhibition in vivo at 1 mg/kg runs as follows: (4 h) 3%; (24 h) 0%.

Values taken from patent US8492589B2, “Alkynyl phenyl derivative compounds for treating ophthalmic diseases and disorders” (Acucela Inc., priority 2007, dated 2013).
